From patent US8389541B2, “Inhibitors of protein tyrosine kinase activity” (MethylGene Inc., priority 2007, dated 2013)
Read-outs that look alike come from different tables or passages of the source.

Columns and labels:
A549 cells = assay: Wound healing assay in A549 cells (HGF-stimulated); type: cell-based; details: Homo sapiens, last dose that inhibited gap closing by more than 25%, 24 h, read-out: A549 WOUND_HEALING IC50
Method: Wound healing assay in A549 cells. A549 cells (ATCC) are seeded in DMEM low glucose medium complemented with 10% FBS into 24-well plates at a density of 7.5×10^4 cells/well and grown to confluence (48 h). Inhibitors were added to the medium at a range of doses (0.00032-10 uM) for 3 h at which point a gap is introduced by scraping cells with a P1000 pipette tip. Cells are then stimulated to migrate by the addition of HGF (in the form of conditioned medium from 293T cells over-expressing the human HGF gene) and the culture is continued for 24 h. […] For the purpose of standardization, a control is carried on every assay plates.

DU145 cells = assay: Scatter assay in DU145 cells (HGF-stimulated); type: cell-based; details: Homo sapiens, DU-145, last dose that created an inhibitory effect on scattering, 24 h, read-out: DU145 SCATT. INHIB IC50
Method: Scatter assays in DU145. The scatter assay is performed as described previously (Miura H, Nishimura K, Tsujimura A, Matsumiya K, Matsumoto K, Nakamura T, et al. Effects of hepatocyte growth factor on E-cadherin-mediated cell-cell adhesion in DU145 prostate cancer cells. Urology 2001; 58(6):1064-9) for DU145 prostate carcinoma cells with the indicated modifications. In brief, DU145 cells (ATCC) are seeded in 24-well plates at a density of 7×10^3 cells/well in MEM medium complemented with 10% FBS and cultured for 48 h, to allow the formation of small compact colonies of cells. Inhibitors are subsequently added at a range of doses (0.00032-10 uM) for 3 h. Cells are then stimulated to migrate by the addition of HGF (in the form of conditioned medium from 293T cells over-expressing the human HGF gene) and the culture is continued for another 24 h. The IC50 values is defined as the last dose that created an inhibitory effect on scattering. For the purpose of standardization a control is carried on every test plates for the DU145 scattering assays.

VEGF receptor KDR = target: T1, VEGF receptor KDR (Homo sapiens, UniProt P35968); assay: In vitro receptor tyrosine kinase assay (DELFIA), VEGF receptor KDR; type: biochemical; details: GST-VEGFR2 806-1356, 0.6 uM ATP; read-out: VEGFR IC50
T1 construct: made in house; host or cells: Sf9 cells (Spodoptera frugiperda), baculovirus
T1 sequence (P35968 806-1356): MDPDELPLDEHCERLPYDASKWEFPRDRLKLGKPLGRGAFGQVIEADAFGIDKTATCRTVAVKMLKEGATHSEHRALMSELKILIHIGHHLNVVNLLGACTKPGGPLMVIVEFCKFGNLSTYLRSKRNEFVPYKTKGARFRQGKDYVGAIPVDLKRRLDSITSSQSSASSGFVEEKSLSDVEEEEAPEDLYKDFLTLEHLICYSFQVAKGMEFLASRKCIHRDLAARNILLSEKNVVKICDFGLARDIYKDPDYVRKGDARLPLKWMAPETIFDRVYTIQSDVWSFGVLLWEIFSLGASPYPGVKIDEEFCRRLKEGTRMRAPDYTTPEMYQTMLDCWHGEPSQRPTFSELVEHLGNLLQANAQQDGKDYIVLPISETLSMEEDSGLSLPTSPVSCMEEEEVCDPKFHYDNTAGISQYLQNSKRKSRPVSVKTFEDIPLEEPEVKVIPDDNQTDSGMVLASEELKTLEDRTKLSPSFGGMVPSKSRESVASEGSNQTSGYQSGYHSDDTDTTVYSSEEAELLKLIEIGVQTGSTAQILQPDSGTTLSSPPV
Description: In the case of VEGF receptor KDR a 1.6-kb cDNA corresponding to the catalytic domain of VEGFR2 or KDR (Genbank accession number AF035121 amino acid 806 to 1356) is cloned into the Pst I site of the pDEST20 Gateway vector (Invitrogen) for the production of a GST-tagged version of that enzyme.
The GST-VEGFR2806-1356 protein is expressed in Sf9 cells (Spodoptera frugiperda) upon infection with recombinant baculovirus construct.
The supernatant is loaded onto a GST-agarose column (Sigma) equilibrated with PBS pH 7.3. Following a four column volume (CV) wash with PBS pH 7.3+1% Triton X-100 and 4 CV wash with buffer B (50 mM Tris pH 8.0, 20% glycerol and 100 mM NaCl), bound proteins are step eluted with 5 CV of buffer B supplemented with 5 mM DTT and 15 mM glutathion. […] Final GST-VEGFR2806-1356 protein preparations concentrations are about 0.7 mg/ml with purity approximating 70%.

[1] = target: recombinant human c-Met/HGF receptor (Homo sapiens, UniProt P08581); assay: In vitro receptor tyrosine kinase assay (DELFIA), c-Met/HGF receptor
Sequence of recombinant human c-Met/HGF receptor (P08581 1078-1337): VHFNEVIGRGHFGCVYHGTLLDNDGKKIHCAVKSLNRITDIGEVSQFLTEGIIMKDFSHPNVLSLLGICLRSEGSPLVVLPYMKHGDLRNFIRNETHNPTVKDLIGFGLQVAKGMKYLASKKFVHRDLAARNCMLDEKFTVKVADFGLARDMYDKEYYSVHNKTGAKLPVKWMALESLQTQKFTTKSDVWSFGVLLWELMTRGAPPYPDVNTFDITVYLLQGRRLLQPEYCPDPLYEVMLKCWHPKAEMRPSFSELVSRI

c-Met = target: T2, c-Met (Homo sapiens, UniProt P08581); assay: Inhibition of c-Met phosphorylation in MKN45 cells (direct ELISA); type: cell-based; details: 3 h treatment, read-out: CMET ELISA IN MKN45 IC50
T2 construct: endogenous in cells; host or cells: MKN45 gastric carcinoma cells
T2 sequence (P08581 25-1390): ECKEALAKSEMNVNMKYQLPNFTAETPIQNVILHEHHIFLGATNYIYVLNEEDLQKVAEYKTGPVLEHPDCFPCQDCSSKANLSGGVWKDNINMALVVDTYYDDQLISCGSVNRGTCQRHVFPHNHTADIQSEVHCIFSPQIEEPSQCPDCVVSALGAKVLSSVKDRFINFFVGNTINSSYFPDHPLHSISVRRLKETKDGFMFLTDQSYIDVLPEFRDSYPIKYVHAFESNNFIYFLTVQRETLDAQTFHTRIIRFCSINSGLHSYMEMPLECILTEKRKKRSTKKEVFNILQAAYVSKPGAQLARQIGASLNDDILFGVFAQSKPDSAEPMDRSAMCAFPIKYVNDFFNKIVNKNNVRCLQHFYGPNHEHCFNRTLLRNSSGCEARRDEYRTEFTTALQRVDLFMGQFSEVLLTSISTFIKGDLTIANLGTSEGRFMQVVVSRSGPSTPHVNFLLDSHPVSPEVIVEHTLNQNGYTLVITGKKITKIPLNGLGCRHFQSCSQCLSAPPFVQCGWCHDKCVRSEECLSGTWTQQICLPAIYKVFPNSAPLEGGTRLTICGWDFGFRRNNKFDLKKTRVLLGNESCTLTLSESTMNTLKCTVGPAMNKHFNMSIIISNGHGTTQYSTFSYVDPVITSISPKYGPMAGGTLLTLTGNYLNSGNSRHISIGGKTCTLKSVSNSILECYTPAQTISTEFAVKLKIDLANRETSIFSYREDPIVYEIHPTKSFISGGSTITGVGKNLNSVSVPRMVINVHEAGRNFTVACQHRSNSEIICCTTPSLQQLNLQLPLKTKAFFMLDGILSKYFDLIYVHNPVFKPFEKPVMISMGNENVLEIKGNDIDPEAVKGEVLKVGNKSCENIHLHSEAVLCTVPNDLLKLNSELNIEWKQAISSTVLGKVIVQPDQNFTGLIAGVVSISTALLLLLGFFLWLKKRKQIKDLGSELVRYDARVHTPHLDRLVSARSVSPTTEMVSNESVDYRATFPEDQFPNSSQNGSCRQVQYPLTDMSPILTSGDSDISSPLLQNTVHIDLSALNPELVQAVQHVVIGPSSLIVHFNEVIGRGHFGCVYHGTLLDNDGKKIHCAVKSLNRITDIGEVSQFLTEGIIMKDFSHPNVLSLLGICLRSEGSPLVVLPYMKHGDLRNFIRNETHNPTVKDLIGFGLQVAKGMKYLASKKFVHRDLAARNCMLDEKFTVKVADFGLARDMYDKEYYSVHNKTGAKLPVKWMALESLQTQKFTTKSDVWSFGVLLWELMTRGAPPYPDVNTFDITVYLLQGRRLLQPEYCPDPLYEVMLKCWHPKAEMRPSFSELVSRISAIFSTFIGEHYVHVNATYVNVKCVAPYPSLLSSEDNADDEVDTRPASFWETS
Description: The following assay is used to determine inhibition of c-Met phosphorylation.
The c-Met receptor is expressed in numerous cancer cell lines derived from tumors of epithelial origin. In MKN45 gastric carcinoma cells the c-Met gene is amplified, resulting in several-fold overexpression of the receptor and its constitutive activation. For this reason constitutively high levels of ERK1/2 are also detected in these cells, independently of HGF-added stimulation (Smolen G A, Sordella R, Muir B, Mohapatra G, Barmettler A, Archibald H, et al. Amplification of MET may identify a subset of cancers with extreme sensitivity to the selective tyrosine kinase inhibitor PHA-665752. Proc Natl Acad Sci USA 2006). We have developed a sensitive method to follow c-Met phosphorylation in these cells. In previous studies with earlier generation c-Met inhibitors, we established that the IC50s for the inhibition of c-Met phosphorylation were identical using this novel ELISA approach and standard western blot procedure, with antibodies directed against the activating autocatalysis tyrosine residues of c-MET (Tyr Y1230-34-35).
Cell treatments: MKN45 cells are seeded into wells of 96-well plates at a density of 3×10^4 cells/well in RPMI medium supplemented with 10% FBS. HA-TPR-RON expressing 293T (clone 18) cells are seeded into wells of 96-well plates at a density of 3×10^4 cells/well in DMEM medium supplemented with 10% FBS. Cells are grown for 48 h prior to treatments with compounds of interest. Inhibitors are added to the medium in triplicate wells at the indicated doses. After 3 h of treatment, media is aspirated and cells are lysed by one freeze-thaw cycle in 50 μL/well hypotonic lysis buffer (25 mM HEPES pH 7.5, 10 mM NaCl with 1 mM 4-(2-aminoethyl)benzenesulfonyl fluoride hydrochloride, 200 μM sodium orthovanadate, 1 mM sodium fluoride, 10 μg/mL of leupeptin, 10 μg/mL of aprotinin/mL, 1 μg/mL of pepstatin and 50 μg/mL Na-p-tosyl-L-lysine chloromethyl ketone hydrochloride.
Detection of phosphorylated c-Met by direct ELISA: Lysate samples (5 μL) from wells of treatment plates are transferred to 80 μL of binding buffer (25 mM HEPES pH 7.5, 200 mM NaCl) in wells of high binding white polysterene 96-well plates (Corning). After an overnight protein binding incubation at 4° C., lysates are aspirated and wells are blocked for 1 h at 37° C. in TBST supplemented with 5% BSA. Plates are incubated with the primary antibodies anti-phospho-Tyrosine (Millipore, 4G10) diluted 1/15000 in TBST supplemented with 5% BSA for 1 h at room temperature. Plates are washed 3 times on a plate washer (SkanWasher, Molecular Devises), and incubated with the reporter antibody […] (Sigma) diluted 1/15000 in TBST supplemented with 5% BSA, for 1 h at room temperature. Plates are washed 3 times with TBST using on a plate washer and subsequently incubated with chemiluminescent substrate solution (ECL, Roche). Luminescence signal is captured on a Polar Star Optima apparatus (BMG LabTech).
Average values of the triplicate samples are used to prepare IC50 curves using a 4-parameter fit model. These curves are calculated using, for example, GraFit 5.0 software. For assay standardization purpose, an internal control is included on each experimental test plate.

MKN45 tumor = assay: In vivo solid tumor disease model, MKN45; parameters: species or system mice; details: Mus musculus, MKN-45, po, MKN45, 20 mg/kg orally daily, read-out: Tumor Growth Inhibition (%)

Structure (SMILES)	IC50 (A549 cells) [µM]	IC50 (DU145 cells) [µM]	IC50 (VEGF receptor KDR) [µM]	IC50 [1] [µM]	IC50 (c-Met) [µM]	inhibition in vivo at 20 mg/kg (MKN45 tumor; 192 h, 8 days) [%]	inhibition in vivo at 20 mg/kg (MKN45 tumor; 168 h, 7 days) [%]
COC[C@H](C)NCc1ccc(-c2cc3nccc(Oc4ccc(NC(=S)NC(=O)Cc5ccc(F)cc5)cc4F)c3s2)cc1	0.25 to 0.5	0.25 to 0.5	< 0.25	< 0.25	< 0.25	–	–
COCCNCc1ccc(-c2cc3nccc(Oc4ccc(NC(=O)CC(=O)Nc5ccccc5)cc4F)c3s2)nc1	< 0.25	< 0.25	< 0.25	< 0.25	< 0.25	–	–
COCCNCc1ccc(-c2cc3nccc(Oc4ccc(NC(=O)C5(C(=O)Nc6ccccc6)CC5)cc4F)c3s2)cc1 [drawing 364]	–	–	–	–	–	≥ 75	–
COC[C@H](C)NCc1cccc(-c2cc3nccc(Oc4ccc(NC(=S)NC(=O)Cc5ccc(F)cc5)cc4F)c3s2)c1 [drawing 361]	–	–	–	–	–	–	25 to 50
COCCNCc1ccc(-c2cc3nccc(Oc4ccc(NC(=O)CC(=O)Nc5ccccc5)cc4F)c3s2)c(F)c1	> 1	0.25 to 0.5	< 0.25	< 0.25	< 0.25	–	–
COCCNCc1ccc(-c2cc3nccc(Oc4ccc(NC(=S)NC(=O)Cc5ccccc5OC)cc4F)c3s2)nc1 [drawing 311]	0.25 to 0.5	0.25 to 0.5	< 0.25	< 0.25	< 0.25	–	–
COCCNCc1cccc(-c2cc3nccc(Oc4ccc(NC(=S)NC(=O)Cc5ccc(F)cc5)cc4F)c3s2)c1 [drawing 296]	0.25 to 0.5	0.25 to 0.5	< 0.25	< 0.25	< 0.25	–	–
COCCNC(=O)c1ccc(-c2cc3nccc(Oc4ccc(NC(=S)NC(=O)Cc5ccccc5)cc4F)c3s2)cc1	> 1	0.25 to 0.5	< 0.25	< 0.25	< 0.25	–	–
COCCNCCn1cnc(-c2cc3nccc(Oc4ccc(NC(=S)NC(=O)Cc5ccc(F)cc5)cc4F)c3s2)c1 [drawing 318]	0.25 to 0.5	0.25 to 0.5	< 0.25	< 0.25	< 0.25	–	–
COCCNCc1cnc(-c2cc3nccc(Oc4ccc(NC(=S)NC(=O)Cc5ccccc5)cc4F)c3s2)n1C [drawing 342]	< 0.25	< 0.25	< 0.25	< 0.25	< 0.25	–	–
COCCNCc1ccc(-c2cc3nccc(Oc4ccc(NC(=O)C5(C(=O)Nc6ccccc6OC)CC5)cc4F)c3s2)cc1	0.25 to 0.5	0.25 to 0.5	< 0.25	< 0.25	0.5 to 1	–	–
